Assay results published in ChEMBL document CHEMBL1201862, “PubChem BioAssay data set” (2004).
Calls of active or inactive are those of the source.

Legend:
[1] = target: T1, Heat shock 70 kDa protein 1A (Homo sapiens, UniProt P0DMV8); experiment: Hsp70 inhibitors, probe displacement, primary screen, biochemical, fluorescence polarization (AID 583)
[2] = target: T1, Heat shock 70 kDa protein 1A; experiment: Hsp70 inhibitors, biochemical, TR-FRET (AID 786)
[3] = target: FAD-linked sulfhydryl oxidase ALR (Homo sapiens, UniProt P55789); experiment: inhibitors of human ALR sulfhydryl oxidase, dose response, biochemical, H2O2 detection, luminescence, cherry-pick (AID 493248)
Staphylococcus aureus = experiment: Inhibitors of Bacterial Quorum Sensing Structure Activity Relationship (SAR) Analysis: Dose Response Assay. [Related pubchem assays: 700, 527 ]; format: functional, organism-based
[4] = target: Lysosomal acid glucosylceramidase (Homo sapiens, UniProt P04062); experiment: Dose response cell-based high throughput screening assay to identify enhancers of beta-glucosidase activity. [Related pubchem assays: 784 ]; format: functional
[5] = target: T2, Neuropeptide Y receptor type 2 (Homo sapiens, UniProt P49146); experiment: NPY-Y2 antagonist potency, selectivity check, dose response, counter-screen for NPY-Y1 antagonist project, cell-based (AID 1278); format: functional
T2 sequence (P49146 whole entry): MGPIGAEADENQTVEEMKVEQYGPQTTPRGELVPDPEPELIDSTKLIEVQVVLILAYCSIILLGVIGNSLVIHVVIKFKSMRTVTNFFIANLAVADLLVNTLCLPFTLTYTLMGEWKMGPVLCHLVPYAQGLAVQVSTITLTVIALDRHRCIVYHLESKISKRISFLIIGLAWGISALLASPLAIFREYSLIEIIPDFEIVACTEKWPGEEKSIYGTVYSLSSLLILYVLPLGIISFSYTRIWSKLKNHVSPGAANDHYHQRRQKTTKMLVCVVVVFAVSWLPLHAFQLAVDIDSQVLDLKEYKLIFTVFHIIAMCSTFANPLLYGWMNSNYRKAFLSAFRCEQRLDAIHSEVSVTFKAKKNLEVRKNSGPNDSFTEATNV

[6] = target: T3, Neuropeptide Y receptor type 1 (Homo sapiens, UniProt P25929); experiment: NPY-Y1 receptor antagonist potency, dose response, cell-based (AID 1277); format: functional
T3 sequence (P25929 whole entry): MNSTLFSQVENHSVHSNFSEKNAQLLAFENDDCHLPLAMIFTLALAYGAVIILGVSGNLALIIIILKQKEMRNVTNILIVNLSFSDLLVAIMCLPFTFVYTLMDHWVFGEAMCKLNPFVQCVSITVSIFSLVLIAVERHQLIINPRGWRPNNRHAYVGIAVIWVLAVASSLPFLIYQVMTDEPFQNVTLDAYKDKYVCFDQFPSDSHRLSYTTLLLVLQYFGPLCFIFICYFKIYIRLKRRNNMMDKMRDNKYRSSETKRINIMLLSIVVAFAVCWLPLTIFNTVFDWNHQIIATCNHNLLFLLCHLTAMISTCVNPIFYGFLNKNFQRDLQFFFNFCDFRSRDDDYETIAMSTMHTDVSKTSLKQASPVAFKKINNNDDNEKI

[7] = target: Induced myeloid leukemia cell differentiation protein Mcl-1 (Homo sapiens, UniProt Q07820); format: functional
NS3 = NS3 (Hepatitis C virus, UniProt A3EZJ3); experiment: PubChem AID 2173; design: species or system Hepacivirus hominis
Estrogen receptor = target: T4, Estrogen receptor (Homo sapiens, UniProt P03372);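 also: potency for inhibiting coactivator peptide recruitment to the receptor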
T4 sequence (P03372 whole entry): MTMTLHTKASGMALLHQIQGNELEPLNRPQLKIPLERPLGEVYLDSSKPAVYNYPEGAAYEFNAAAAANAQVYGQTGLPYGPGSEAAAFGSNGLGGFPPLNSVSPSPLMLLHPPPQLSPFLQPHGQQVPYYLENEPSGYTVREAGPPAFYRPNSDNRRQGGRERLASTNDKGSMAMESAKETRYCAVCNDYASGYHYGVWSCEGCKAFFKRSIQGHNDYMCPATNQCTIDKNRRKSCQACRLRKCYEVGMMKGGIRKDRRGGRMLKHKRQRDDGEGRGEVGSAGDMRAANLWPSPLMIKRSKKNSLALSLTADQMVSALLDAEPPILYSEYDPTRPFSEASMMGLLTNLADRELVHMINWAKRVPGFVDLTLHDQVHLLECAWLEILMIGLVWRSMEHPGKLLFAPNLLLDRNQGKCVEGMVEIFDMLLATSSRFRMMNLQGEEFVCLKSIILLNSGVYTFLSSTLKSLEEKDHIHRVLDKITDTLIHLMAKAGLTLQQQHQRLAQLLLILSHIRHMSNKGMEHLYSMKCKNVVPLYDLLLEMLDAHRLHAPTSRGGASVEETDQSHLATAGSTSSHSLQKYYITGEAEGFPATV

Estrogen receptor beta [8] = target: T5, Estrogen receptor beta (Homo sapiens, UniProt Q92731);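 also: recombinant ER-beta bound to coactivator SRC1 peptide in presence of estradiol agonist; inhibitors block coactivator peptide binding and lower the FRET signal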
Estrogen receptor beta [9] = target: T5, Estrogen receptor beta; experiment: ERβ–SRC-3 coactivator interaction inhibitors, confirmation, orthogonal assay, biochemical, ELISA, streptavidin-HRP readout (AID 1060)
Cytochrome P450 2D6 = Cytochrome P450 2D6 (Homo sapiens, UniProt P10635); experiment: qHTS Assay for Inhibitors and Substrates of Cytochrome P450 2D6. [Related pubchem assays: 410 ]; format: ADME; settings: read-out: Potency
[10] = cytotoxicity toward NIH3T3 fibroblasts, dose response, counter-screen, cell-based, ATP luminescence, mouse fibroblasts (AID 2010); format: functional;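 also: cells exposed to compound for about 90 hours before reading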
[11] = inhibitors of intracellular T. cruzi replication, confirmation, NIH3T3 host cells, beta-gal luminescence (AID 2044); format: functional, cell-based;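 also: intracellular parasites grown in NIH/3T3 mouse fibroblasts as host cells; luminescent beta-galactosidase reporter signal from transgenic T. cruzi replicating inside host cells; inhibitors lower the luminescence signal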
[12] = target: Sphingosine 1-phosphate receptor 3 (Homo sapiens, UniProt Q99500); experiment: Dose response cell-based high throughput screening assay for antagonists of the Sphingosine 1-Phosphate Receptor 3 (S1P3). [Related pubchem assays: 1429, 485 ]; format: functional
[13] = HEp-2 cell cytotoxicity, dose response, cytotoxicity control for RSV inhibitor project, HTS (AID 2410); format: functional; settings: human respiratory syncytial virus
[14] = target: 5-hydroxytryptamine receptor 1E (Homo sapiens, UniProt P28566); experiment: Counterscreen assay for S1P3 antagonists: Dose response cell-based high throughput screening assay to identify antagonists of the 5-Hydroxytryptamine Receptor Subtype 1E (5HT1E). [Related pubchem assays: 1429, 485 ]; format: functional
Streptokinase A = target: T6, Streptokinase A (Streptococcus pyogenes serotype M1, UniProt P10520); experiment: S. pyogenes streptokinase expression inhibitors, potency, dose response, plasminogen activation absorbance, OD405 (AID 1914); format: functional, Streptococcus pyogenes M1 GAS;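 also: secreted streptokinase activity via plasminogen activation per viability signal from cell pellet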
T6 sequence (P10520 whole entry): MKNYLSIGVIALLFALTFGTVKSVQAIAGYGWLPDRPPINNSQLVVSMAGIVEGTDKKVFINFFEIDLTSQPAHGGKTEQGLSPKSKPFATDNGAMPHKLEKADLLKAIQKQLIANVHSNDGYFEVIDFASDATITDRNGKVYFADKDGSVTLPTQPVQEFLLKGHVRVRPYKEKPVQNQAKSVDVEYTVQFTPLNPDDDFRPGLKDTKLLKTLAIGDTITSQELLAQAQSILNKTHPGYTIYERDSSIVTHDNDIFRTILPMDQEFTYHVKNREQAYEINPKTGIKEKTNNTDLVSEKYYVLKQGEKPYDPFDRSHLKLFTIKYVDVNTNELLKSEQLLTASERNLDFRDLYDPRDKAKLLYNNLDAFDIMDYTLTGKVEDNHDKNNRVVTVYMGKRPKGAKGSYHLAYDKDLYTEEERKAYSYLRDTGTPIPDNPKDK

[15] = target: Serine/threonine-protein phosphatase (Homo sapiens, UniProt Q9BPW0); experiment: Counterscreen for inhibitors of PP1: fluorescence-based biochemical high throughput dose response assay to identify inhibitors of Protein Phosphatase 5 (PP5). [Related pubchem assays: 2034 (Summary (PP5 inhibitors)), 1987 (PP5 inhibitors in singlate), 2235 (PP1 inhibitors in singlate)]
[16] = target: Serine/threonine-protein phosphatase PP1-alpha catalytic subunit (Homo sapiens, UniProt P62136); experiment: PP1 phosphatase inhibitors, dose response, biochemical, fluorescence (AID 2403);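 also: phosphatase turnover of OMFP into fluorescent 3-O-methylfluorescein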
[17] = system: Streptococcus sp. 'group A'; experiment: growth inhibition of control SK(-) GAS strain, dose response, counter-screen for streptokinase expression inhibitor project, luminescence, kanamycin, BacTiterGlo, confirmation (AID 1900); format: functional, organism-based
Streptococcus = experiment: Group A Streptococcus viability loss, dose response, counter-screen for streptokinase expression inhibitor project, luminescence, BacTiterGlo (AID 1915); format: functional, organism-based;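 also: potency for reduction of bacterial viability or growth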

T1 sequence (P0DMV8 whole entry): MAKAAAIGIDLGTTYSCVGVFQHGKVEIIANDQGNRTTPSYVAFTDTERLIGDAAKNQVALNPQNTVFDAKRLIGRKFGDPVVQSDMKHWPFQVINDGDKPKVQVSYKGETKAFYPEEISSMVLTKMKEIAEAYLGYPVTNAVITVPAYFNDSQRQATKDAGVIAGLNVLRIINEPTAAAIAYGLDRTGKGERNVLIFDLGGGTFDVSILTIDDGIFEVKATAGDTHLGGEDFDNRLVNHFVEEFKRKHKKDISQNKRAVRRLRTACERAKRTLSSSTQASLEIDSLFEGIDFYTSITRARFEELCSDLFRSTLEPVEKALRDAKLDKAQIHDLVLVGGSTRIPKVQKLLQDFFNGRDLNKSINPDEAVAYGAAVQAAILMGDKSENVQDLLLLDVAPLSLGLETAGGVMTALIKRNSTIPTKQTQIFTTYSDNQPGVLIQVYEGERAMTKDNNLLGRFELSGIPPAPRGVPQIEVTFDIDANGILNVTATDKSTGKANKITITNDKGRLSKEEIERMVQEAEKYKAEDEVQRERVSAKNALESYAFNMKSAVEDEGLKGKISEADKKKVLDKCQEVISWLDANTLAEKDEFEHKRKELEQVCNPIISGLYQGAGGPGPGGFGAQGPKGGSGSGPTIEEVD
T5 sequence (Q92731 whole entry): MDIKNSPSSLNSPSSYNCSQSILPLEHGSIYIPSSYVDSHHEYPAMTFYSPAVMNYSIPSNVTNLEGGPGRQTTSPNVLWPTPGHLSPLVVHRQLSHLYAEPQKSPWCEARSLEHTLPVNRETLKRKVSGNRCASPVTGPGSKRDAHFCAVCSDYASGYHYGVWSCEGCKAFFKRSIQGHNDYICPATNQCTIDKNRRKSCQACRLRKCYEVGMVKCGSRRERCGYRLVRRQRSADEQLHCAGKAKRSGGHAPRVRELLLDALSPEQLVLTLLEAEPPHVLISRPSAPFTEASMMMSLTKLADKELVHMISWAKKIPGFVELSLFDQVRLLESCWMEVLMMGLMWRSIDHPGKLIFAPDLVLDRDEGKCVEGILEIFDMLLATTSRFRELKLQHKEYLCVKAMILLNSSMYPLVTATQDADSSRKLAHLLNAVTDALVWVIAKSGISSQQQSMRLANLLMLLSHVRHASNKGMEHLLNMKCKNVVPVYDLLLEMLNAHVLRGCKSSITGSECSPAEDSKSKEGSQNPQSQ
Sequence of 5-hydroxytryptamine receptor 1E (P28566 whole entry): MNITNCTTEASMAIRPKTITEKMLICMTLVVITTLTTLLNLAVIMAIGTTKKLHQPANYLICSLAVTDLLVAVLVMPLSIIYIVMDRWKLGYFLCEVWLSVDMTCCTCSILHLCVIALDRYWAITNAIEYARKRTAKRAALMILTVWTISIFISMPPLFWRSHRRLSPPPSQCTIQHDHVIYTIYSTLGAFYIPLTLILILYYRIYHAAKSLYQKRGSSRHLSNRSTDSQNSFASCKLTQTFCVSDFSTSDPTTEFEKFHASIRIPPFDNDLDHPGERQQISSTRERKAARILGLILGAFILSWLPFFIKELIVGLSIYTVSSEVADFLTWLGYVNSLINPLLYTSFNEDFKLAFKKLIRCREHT
Sequence of Serine/threonine-protein phosphatase PP1-alpha catalytic subunit (P62136 whole entry): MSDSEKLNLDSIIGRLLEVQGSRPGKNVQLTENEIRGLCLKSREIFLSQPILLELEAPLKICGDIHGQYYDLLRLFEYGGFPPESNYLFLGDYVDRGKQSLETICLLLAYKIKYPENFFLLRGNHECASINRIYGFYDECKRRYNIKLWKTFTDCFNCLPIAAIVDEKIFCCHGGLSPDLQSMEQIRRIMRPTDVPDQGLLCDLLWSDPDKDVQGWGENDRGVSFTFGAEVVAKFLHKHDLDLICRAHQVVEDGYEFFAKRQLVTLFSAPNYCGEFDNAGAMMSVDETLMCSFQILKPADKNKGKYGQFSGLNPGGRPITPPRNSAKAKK
Sequence of Cytochrome P450 2D6 (P10635 whole entry): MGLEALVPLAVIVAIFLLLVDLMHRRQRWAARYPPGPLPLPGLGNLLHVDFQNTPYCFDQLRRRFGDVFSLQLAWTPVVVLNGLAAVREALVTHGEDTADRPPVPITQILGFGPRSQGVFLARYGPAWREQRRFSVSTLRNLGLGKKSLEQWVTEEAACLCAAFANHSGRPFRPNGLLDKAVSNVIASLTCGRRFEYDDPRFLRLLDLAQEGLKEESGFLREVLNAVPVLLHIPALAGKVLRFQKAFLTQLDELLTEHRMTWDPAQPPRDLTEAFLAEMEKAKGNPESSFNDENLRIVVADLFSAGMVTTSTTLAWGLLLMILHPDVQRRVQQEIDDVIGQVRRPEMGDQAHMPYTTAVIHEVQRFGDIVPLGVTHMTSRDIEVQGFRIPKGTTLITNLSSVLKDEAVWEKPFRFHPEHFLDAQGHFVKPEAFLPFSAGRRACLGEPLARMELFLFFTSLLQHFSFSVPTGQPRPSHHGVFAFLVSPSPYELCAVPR
Sequence of NS3 (A3EZJ3 whole entry): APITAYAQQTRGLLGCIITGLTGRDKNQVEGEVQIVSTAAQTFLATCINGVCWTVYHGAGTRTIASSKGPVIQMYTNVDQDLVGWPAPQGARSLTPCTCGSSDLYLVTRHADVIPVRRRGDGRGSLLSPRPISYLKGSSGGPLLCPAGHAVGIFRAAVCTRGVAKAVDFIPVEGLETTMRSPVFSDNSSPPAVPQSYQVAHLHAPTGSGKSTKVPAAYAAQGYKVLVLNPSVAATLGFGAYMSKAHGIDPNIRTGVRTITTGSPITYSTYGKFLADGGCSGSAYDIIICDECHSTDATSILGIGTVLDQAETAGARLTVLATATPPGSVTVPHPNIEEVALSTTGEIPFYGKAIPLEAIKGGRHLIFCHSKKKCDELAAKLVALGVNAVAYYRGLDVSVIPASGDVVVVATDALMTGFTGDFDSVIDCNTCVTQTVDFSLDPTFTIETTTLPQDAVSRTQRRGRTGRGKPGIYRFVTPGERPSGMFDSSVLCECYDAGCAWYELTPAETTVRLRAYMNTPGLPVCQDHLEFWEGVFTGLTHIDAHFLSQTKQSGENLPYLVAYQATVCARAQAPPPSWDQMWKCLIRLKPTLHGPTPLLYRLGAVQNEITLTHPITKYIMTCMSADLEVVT
Sequence of Sphingosine 1-phosphate receptor 3 (Q99500 whole entry): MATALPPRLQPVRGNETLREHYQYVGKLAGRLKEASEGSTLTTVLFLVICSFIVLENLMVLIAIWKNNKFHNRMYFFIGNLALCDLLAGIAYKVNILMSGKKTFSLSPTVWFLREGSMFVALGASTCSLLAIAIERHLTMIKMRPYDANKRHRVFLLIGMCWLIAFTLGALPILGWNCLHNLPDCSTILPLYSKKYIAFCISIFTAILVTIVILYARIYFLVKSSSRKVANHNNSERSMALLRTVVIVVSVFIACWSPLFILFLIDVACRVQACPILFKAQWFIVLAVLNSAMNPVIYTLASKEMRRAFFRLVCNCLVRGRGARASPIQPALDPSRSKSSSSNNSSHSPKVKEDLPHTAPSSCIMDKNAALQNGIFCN
Sequence of Lysosomal acid glucosylceramidase (P04062 whole entry): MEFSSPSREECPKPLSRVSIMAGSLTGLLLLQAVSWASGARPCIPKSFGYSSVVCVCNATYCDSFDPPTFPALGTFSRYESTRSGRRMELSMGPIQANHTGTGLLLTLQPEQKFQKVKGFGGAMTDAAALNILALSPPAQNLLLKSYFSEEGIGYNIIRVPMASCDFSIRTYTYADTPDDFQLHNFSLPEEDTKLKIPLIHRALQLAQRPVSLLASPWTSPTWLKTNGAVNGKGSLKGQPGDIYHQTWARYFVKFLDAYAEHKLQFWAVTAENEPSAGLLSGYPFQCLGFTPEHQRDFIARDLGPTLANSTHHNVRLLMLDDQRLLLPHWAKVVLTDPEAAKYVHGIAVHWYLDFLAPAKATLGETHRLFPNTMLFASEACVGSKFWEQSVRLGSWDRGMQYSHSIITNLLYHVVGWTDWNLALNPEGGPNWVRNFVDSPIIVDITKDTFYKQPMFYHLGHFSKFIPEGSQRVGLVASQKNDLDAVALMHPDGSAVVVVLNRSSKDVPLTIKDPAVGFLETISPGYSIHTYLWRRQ
Sequence of FAD-linked sulfhydryl oxidase ALR (P55789 whole entry): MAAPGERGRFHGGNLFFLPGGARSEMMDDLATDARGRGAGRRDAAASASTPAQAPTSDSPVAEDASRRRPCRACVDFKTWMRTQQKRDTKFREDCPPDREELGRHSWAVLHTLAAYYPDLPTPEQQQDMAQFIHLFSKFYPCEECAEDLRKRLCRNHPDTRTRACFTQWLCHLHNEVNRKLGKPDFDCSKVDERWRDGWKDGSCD
Sequence of Induced myeloid leukemia cell differentiation protein Mcl-1 (Q07820 whole entry): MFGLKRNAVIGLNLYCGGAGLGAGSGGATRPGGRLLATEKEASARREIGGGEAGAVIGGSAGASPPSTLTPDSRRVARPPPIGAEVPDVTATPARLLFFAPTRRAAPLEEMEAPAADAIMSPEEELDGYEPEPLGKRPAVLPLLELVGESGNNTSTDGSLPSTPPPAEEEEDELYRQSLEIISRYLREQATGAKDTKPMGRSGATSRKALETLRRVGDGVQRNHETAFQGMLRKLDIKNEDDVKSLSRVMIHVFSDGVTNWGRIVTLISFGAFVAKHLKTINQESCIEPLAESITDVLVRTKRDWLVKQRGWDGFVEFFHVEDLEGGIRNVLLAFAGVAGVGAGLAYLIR
Sequence of Serine/threonine-protein phosphatase (Q9BPW0 whole entry): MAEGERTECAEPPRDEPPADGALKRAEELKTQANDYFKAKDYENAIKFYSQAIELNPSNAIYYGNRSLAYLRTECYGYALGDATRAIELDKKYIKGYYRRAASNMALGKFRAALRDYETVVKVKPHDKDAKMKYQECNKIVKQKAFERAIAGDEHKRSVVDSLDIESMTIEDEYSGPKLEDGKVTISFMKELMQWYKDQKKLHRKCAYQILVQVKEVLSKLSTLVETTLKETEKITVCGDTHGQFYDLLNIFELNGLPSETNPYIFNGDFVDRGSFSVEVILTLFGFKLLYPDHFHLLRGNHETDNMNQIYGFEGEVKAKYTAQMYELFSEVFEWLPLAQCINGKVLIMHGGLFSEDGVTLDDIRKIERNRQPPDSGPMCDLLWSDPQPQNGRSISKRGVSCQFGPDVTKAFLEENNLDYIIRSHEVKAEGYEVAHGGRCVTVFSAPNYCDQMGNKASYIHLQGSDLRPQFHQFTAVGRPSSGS

**Q.** With Nc1nc2n(n1)C(c1ccco1)CC(c1ccc(Cl)cc1Cl)N2 (stereo not drawn) as the compound, how does the IC50 [1] read?
**A.** > 100 µM (not active)

**Q.** What about the IC50 [2] of the same compound?
**A.** > 100 µM (not active)

**Q.** Which AC50 [3] does the source give for COc1c(F)c(F)c(C(=O)O)c(Nc2ccc(C)cc2C)c1F here?
**A.** 15.9 µM (active)

**Q.** And the IC50 (Staphylococcus aureus)?
**A.** 0.579 µM (active)

**Q.** For Cc1cc(C)nc(Sc2nc(C)nc3c2oc2ccccc23)n1, which EC50 [4] is on record?
**A.** > 50 µM (not active)

**Q.** Which IC50 [5] does the source give for COc1ccccc1CN(Cc1cc2cc(C)ccc2nc1O)Cc1nnnn1Cc1ccco1 here?
**A.** > 35 µM (not active)

**Q.** What about the IC50 [6] of the same compound?
**A.** 22.7 µM (not active)

**Q.** With C=CCSC1=N/C(=C\C=C\c2ccco2)C(=O)S1 as the compound, how does the IC50 [7] read?
**A.** 5.61 µM (active)

**Q.** What about the IC50 (NS3) of the same compound?
**A.** 11 µM (not active)

**Q.** What about the IC50 (Estrogen receptor) of the same compound?
**A.** > 50 µM (not active)

**Q.** And the IC50 (Estrogen receptor beta [8])?
**A.** 10.3 µM (active)

**Q.** And the IC50 (Estrogen receptor beta [9])?
**A.** > 50 µM (not active)

**Q.** Which AC50 (Cytochrome P450 2D6) does the source give for COC1=C[C@H]2[C@@H]3Cc4ccc(OC)c(O)c4[C@@]2(CCN3C)CC1=O here?
**A.** 20 µM (inconclusive)

**Q.** Which results are given for CC1C(c2ccccc2)N(C)C(c2ccccc2)CC1(O)c1ccc(F)cc1 (stereo not drawn)?
**A.** EC50 [10]: > 60 µM (not active); EC50 [11]: 2.78 µM (active); IC50 [12]: > 50 µM (not active); CC50 [13]: 19.4 µM (active); IC50 [14]: > 50 µM (not active)

**Q.** With O=S(=O)(Cc1cc(NCc2ccccc2)nc(-c2ccccn2)n1)c1ccccc1 as the compound, how does the EC50 (Streptokinase A) read?
**A.** > 150 µM (not active)

**Q.** What about the IC50 [15] of the same compound?
**A.** > 67 µM (not active)

**Q.** And the IC50 [16]?
**A.** 7.88 µM (active)

**Q.** And the EC50 [17]?
**A.** 21 µM (active)

**Q.** What about the EC50 (Streptococcus) of the same compound?
**A.** > 150 µM (not active)
